In US7906522B2, “2-aminoquinazoline derivatives” (Kyowa Hakko Kirin Co., Ltd, priority 2005, dated 2011):

Target: T1, Activated human p38α (Homo sapiens, UniProt Q16539)
T1 construct: purchased Upstate Biotechnology Inc. 14-251
Test: p38MAP kinase inhibition test
Format: biochemical
Conditions: at a concentration of 1 μmol/L; substrate myelin basic protein, ATP 20 μmol/L, [γ-32P]ATP; read-out: enzyme inhibitory activity
Experimental: p38MAP Kinase Inhibition Test
Activated human p38α was purchased from Upstate Biotechnology Inc. (Catalog No. 14-251). P38MAP kinase inhibitory activity was measured by the procedure described below with reference to the method by Whitmarsh A. J. and Davis R. J. [Methods in Enzymology (Method. Enzymol.), vol. 332, p. 319-336 (2001)]. As the substrate to be phosphorylated, a myelin basic protein (Catalog No. 133-13493, Wako Pure Chemical Industries, Ltd.) (20 μg/assay) was used. The reaction was carried out in a solution containing 3-[N-Morpholino]propanesulfonic acid (MOPS) (20 mmol/L, pH 7.2), β-glycerophosphoric acid (Sigma Corp.) (25 mmol/L), ethylenebis(oxyethylenenitrilo)tetraacetic acid (EGTA) (1 mmol/L), […] (Sigma-Aldrich Corp.) (1 mmol/L), dithiothreitol (DTT, Wako Pure Chemical Industries, Ltd.) (1 mmol/L), adenosine 5′-triphosphate (ATP, Sigma Corp.) (20 μmol/L), and MgCl2 (18.75 mmol/L) (total 40 μL/assay). The reaction was started by adding human p38α and [γ-^32P]ATP (1 μCi/assay), and incubation was performed at 30° C. for 15 minutes. The reaction was terminated by adding 4.5% v/v phosphoric acid (10 μL/well). Then, 45 μL of the reaction mixture was adsorbed onto phosphocellulose paper (p81 paper, Code No. 3698023, Whatman International, Maidstone, UK). The phosphocellulose paper was washed with 0.75% v/v phosphoric acid. Then, the radioactivity of the phosphorylated myelin basic protein ([^32P]) remaining on the phosphocellulose paper was measured with a scintillation counter (TRI-CARB2700TR, PerkinElmer, Boston, Mass., USA) using program No. 27 (data mode: cpm, measurement time: 1 min, Background substract: none, energy range measured: LL 0.0-UL 2000) or a scintillation counter (LS6500, BeckmanCoulter, Fullerton, Calif., USA) using program No. 17 (data mode: cpm, measurement time: 1 min, Background substract: none, energy range measured: high). The test compound was dissolved in DMSO before addition.

T1 sequence (Q16539 whole entry): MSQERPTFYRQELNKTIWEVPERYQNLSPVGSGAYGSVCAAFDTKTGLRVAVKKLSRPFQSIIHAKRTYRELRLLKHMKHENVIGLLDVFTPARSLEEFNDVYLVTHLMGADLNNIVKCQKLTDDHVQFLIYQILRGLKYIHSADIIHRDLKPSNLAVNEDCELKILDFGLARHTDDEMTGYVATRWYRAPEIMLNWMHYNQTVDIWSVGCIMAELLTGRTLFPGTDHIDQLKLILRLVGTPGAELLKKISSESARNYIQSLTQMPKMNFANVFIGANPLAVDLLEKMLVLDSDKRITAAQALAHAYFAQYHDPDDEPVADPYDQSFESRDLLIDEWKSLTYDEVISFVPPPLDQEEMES

| inhibition at 1 µM [%] | Structure (SMILES) |
| --- | --- |
| ≥ 50 | COc1cc2nc(NC(C)C)ncc2cc1-c1ccc(O)cc1 [Compound 47, 6-(4-Hydroxyphenyl)-2-isopropylamino-7-methoxyquinazoline] |
| ≥ 50 | Cc1ccccc1-c1cc2cnc(Nc3c(Cl)cc([N+](=O)[O-])cc3Cl)nc2cc1O [Compound 179, 2-(2,6-Dichloro-4-nitroanilino)-7-hydroxy-6-(2-methylphenyl)quinazoline] |
| ≥ 50 | CC(C)Nc1ncc2cc(-c3ccccc3Cl)c(O)c(-c3ccc(C(=O)O)cc3)c2n1 [Compound 92, 8-(4-Carboxyphenyl)-6-(2-chlorophenyl)-7-hydroxy-2-(isopropylamino)quinazoline] |
| ≥ 50 | Cc1ccc(NC(=O)c2ccccn2)cc1-c1ccc2nc(NC(C)C)ncc2c1 [Compound 262, 2-Isopropylamino-6-{2-methyl-5-(2-pyridylcarbonylamino)phenyl}quinazoline] |
| ≥ 50 | COc1cc2nc(N)ncc2cc1-c1cc(NC(C)=O)ccc1C [Compound 249, 6-(5-Acetylamino-2-methylphenyl)-2-amino-7-methoxyquinazoline] |
| ≥ 50 | CC(=O)Nc1cccc(-c2cc3cnc(NC(C)C)nc3cc2O)c1 [Compound 287, 6-[3-(Acetylamino)phenyl]-7-hydroxy-2-(isopropylamino)quinazoline] |
| ≥ 50 | Cc1ccc(NC(=O)C2CCC2)cc1-c1cc2cnc(NC(C)C)nc2cc1O [Compound 293, 6-(5-Cyclobutylcarbonylamino-2-methylphenyl)-7-hydroxy-2-(isopropylamino)quinazoline] |
| ≥ 50 | COc1cc2nc(NC(C)C)ncc2cc1-c1cccc(NC(=O)C2CCC2)c1 [Compound 222, 6-[3-(Cyclobutylcarbonylamino)phenyl]-2-isopropylamino-7-methoxyquinazoline] |
| ≥ 50 | CC(C)Nc1ncc2cc(-c3cc(NC(=O)c4ccnc(N5CCOCC5)c4)ccc3O)ccc2n1 [Compound 266, 6-{2-Hydroxy-5-[(2-morpholinopyridin-4-yl)carbonylamino]phenyl]-2-(isopropylamino)quinazoline] |
| ≥ 50 | COc1cc2nc(NC(C)C)ncc2cc1-c1ccccc1O [Compound 186, 6-(2-Hydroxyphenyl)-2-isopropylamino-7-methoxyquinazoline] |
| ≥ 50 | COc1cc2nc(NC(C)C)ncc2cc1-c1ccccc1C(C)=O [Compound 187, 6-(2-Acetylphenyl)-2-isopropylamino-7-methoxyquinazoline] |
| ≥ 50 | CC(C)Nc1ncc2cc(-c3cccc(NC(=O)C4CCC4)c3)c(O)cc2n1 [Compound 294, 6-[3-(Cyclobutylcarbonylamino)phenyl]-7-hydroxy-2-(isopropylamino)quinazoline] |
| ≥ 50 | COc1cc2nc(NC(C)C)ncc2cc1-c1ccccc1C(=O)O [Compound 185, 6-(2-Carboxyphenyl)-2-isopropylamino-7-methoxyquinazoline] |
| ≥ 50 | COc1cc2nc(NCC3CCN(S(C)(=O)=O)CC3)ncc2cc1-c1ccccc1Cl [Compound 144, 6-(2-Chlorophenyl)-7-methoxy-2-[1-(methylsulfonyl)piperidin-4-ylmethylamino]quinazoline] |
| ≥ 50 | CC(C)Nc1ncc2cc(-c3ccccc3Cl)c(OCCCC(=O)O)cc2n1 [Compound 31, 7-(3-Carboxypropyloxy)-6-(2-chlorophenyl)-2-isopropylaminoquinazoline] |
| ≥ 50 | CC(C)CNc1ncc2cc(-c3ccccc3Cl)c(O)cc2n1 [Compound 160, 6-(2-Chlorophenyl)-7-hydroxy-2-isobutylaminoquinazoline] |
| ≥ 50 | Cc1ccc(NC(=O)c2cnccn2)cc1-c1ccc2nc(NC(C)C)ncc2c1 [Compound 261, 2-Isopropylamino-6-[2-methyl-5-(pyrazinylcarbonylamino)phenyl]quinazoline] |
| ≥ 50 | Cc1ccccc1-c1cc2cnc(N[C@@H](C)C3CCCCC3)nc2cc1O [Compound 172, (S)-2-(1-cyclohexylethylamino)-7-hydroxy-6-(2-methylphenyl)quinazoline] |

| inhibition at 1 µM [%] | Structure (SMILES) |
| --- | --- |
| ≥ 50 | COC(=O)c1c(OC)c(-c2ccccc2Cl)cc2cnc(NC(C)C)nc12 [Compound 61, 6-(2-Chlorophenyl)-2-isopropylamino-7-methoxy-8-(methoxycarbonyl)quinazoline] |
| ≥ 50 | Cc1ccc(NC(=O)C2CC2)cc1-c1ccc2nc(NC(C)C)ncc2c1 [Compound 264, 6-(5-Cyclopropylcarbonylamino-2-methylphenyl)-2-(isopropylamino)quinazoline] |
| ≥ 50 | COc1cc2nc(NC(C)C)ncc2cc1-c1ccccc1[N+](=O)[O-] [Compound 55, 2-Isopropylamino-7-methoxy-6-(2-nitrophenyl)quinazoline] |
| ≥ 50 | COc1cc2nc(NC3CCN(S(C)(=O)=O)CC3)ncc2cc1-c1cccc(O)c1 [Compound 240, 6-(3-Hydroxyphenyl)-7-methoxy-2-[1-(methylsulfonyl)piperidin-4-ylamino]quinazoline] |
| ≥ 50 | CC(C)Nc1ncc2cc(-c3cccc4ccccc34)c(O)cc2n1 [Compound 326, 7-Hydroxy-2-isopropylamino-6-(naphthalen-1-yl)quinazoline] |
| ≥ 50 | COc1cc2nc(NC(C)C)ncc2cc1-c1cccc(NC(=O)c2cccc(C(F)(F)F)c2)c1 [Compound 216, 2-Isopropylamino-7-methoxy-6-{3-[(3-trifluoromethylphenyl)carbonylamino]phenyl}quinazoline] |
| ≥ 50 | CNc1ncc2cc(-c3cc(NC(=O)c4ccc[nH]4)ccc3C)c(OC)cc2n1 [Compound 251, 7-Methoxy-2-methylamino-6-{2-methyl-5-[(1H-pyrrol-2-yl)carbonylamino]phenyl}quinazoline] |
| ≥ 50 | CC(C)Nc1ncc2cc(C(=O)c3ccc(F)c(Cl)c3)c(O)cc2n1 [Compound 127, 6-(3-Chloro-4-fluorobenzoyl)-7-hydroxy-2-(isopropylamino)quinazoline] |
| ≥ 50 | COc1cc2nc(NC(C)C)ncc2cc1-c1cccc(NC(=O)c2ccc[nH]2)c1 [Compound 209, 2-Isopropylamino-7-methoxy-6-{3-[(1H-pyrrol-2-yl)carbonylamino]phenyl}quinazoline] |
| ≥ 50 | COc1cc2nc(NC3CCN(S(C)(=O)=O)CC3)ncc2cc1-c1ccccc1C [Compound 164, 7-Methoxy-6-(2-methylphenyl)-2-[1-(methylsulfonyl)piperidin-4-ylamino]quinazoline] |
| ≥ 50 | CON=Cc1ccccc1-c1cc2cnc(NC(C)C)nc2cc1OC [Compound 59, 2-Isopropylamino-7-methoxy-6-[2-(methoxyimino)phenyl]quinazoline] |
| ≥ 50 | CCS(=O)(=O)N[C@H]1CC[C@H](Nc2ncc3cc(-c4ccccc4Cl)c(OC)cc3n2)CC1 [Compound 147, 6-(2-Chlorophenyl)-2-[trans-4-(ethylsulfonylamino)cyclohexylamino]-7-methoxyquinazoline] |
| ≥ 50 | COc1cc2nc(NC3CCN(C(N)=O)CC3)ncc2cc1-c1ccccc1Cl [Compound 15, 2-(1-Carbamoylpiperidin-4-ylamino)-6-(2-chlorophenyl)-7-methoxyquinazoline] |
| ≥ 50 | CC(C)Nc1ncc2cc(C(=O)c3cc(F)cc(F)c3)c(O)cc2n1 [Compound 134, 6-(3,5-Difluorobenzoyl)-7-hydroxy-2-(isopropylamino)quinazoline] |
| ≥ 50 | COc1cccc(C(=O)c2cc3cnc(NC(C)C)nc3cc2O)c1 [Compound 121, 7-Hydroxy-2-isopropylamino-6-(3-methoxybenzoyl)quinazoline] |
| ≥ 50 | CC(C)Nc1ncc2cc(-c3cc(NC(=O)c4ccc[nH]4)ccc3CO)ccc2n1 [Compound 255, 6-{2-Hydroxymethyl-5-[(1H-pyrrol-2-yl)carbonylamino]phenyl}-2-(isopropylamino)quinazoline] |
| ≥ 50 | COc1cc2nc(NC(C)C)ncc2cc1-c1cccc(C(C)=O)c1 [Compound 199, 6-(3-Acetylphenyl)-2-isopropylamino-7-methoxyquinazoline] |
| ≥ 50 | CC(C)Nc1ncc2cc(C(=O)c3cccc(F)c3)c(O)cc2n1 [Compound 132, 6-(3-Fluorobenzoyl)-7-hydroxy-2-(isopropylamino)quinazoline] |

| Structure (SMILES) | inhibition at 1 µM [%] |
| --- | --- |
| CC(C)Nc1ncc2cc(-c3ccccc3Cl)c(OCC(=O)N3CCN(C)CC3)cc2n1 [Compound 40, 6-(2-Chlorophenyl)-2-isopropylamino-7-[(4-methylpiperazin-1-ylcarbonyl)methyloxy]quinazoline] | ≥ 50 |
